Test [1] concerns the target T1, C5a anaphylatoxin chemotactic receptor 1 (Homo sapiens) (UniProt P21730).
T1 sequence (whole entry): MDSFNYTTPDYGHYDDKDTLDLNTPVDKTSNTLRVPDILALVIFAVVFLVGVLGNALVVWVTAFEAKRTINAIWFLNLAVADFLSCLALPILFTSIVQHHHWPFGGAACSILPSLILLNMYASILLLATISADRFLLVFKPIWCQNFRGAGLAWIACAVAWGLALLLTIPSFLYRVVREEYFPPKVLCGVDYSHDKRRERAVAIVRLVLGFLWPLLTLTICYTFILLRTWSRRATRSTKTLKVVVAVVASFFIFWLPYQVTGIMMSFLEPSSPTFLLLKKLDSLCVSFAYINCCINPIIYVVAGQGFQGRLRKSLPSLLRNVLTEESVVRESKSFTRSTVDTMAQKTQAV
The test can be described thus: Inhibition of radiolabeled C5a binding to its membrane bound C5a anaphylatoxin chemotactic receptor.

The target of test [2] is T1, C5a anaphylatoxin chemotactic receptor 1 (Homo sapiens). The test can be described thus: Nonspecific degranulation of polymorho neutrophils as measured by myeloperoxidase (MPO) release in a whole functional cell assay.

`CC[C@H](C)C[C@H]1CC[C@](O)([C@](C)(O)C(=O)N[C@@H]2C(=O)N3NCCC[C@@H]3C(=O)N(O)[C@@H](C)C(=O)NCC(=O)N3NCCC[C@H]3C(=O)N(C)[C@H](C)C(=O)O[C@H]2C(C)C)O[C@@H]1C` returned an Activity in test [1] of 5 µg/mL. Besides, in test [2], the Concentration causing nonspecific degranulation (MPO release) is 4 µg/mL.
With `CC[C@H](C)C[C@H]1CC[C@](O)([C@](C)(O)C(=O)N[C@@H]2C(=O)N3NCCC[C@@H]3C(=O)N(C)[C@@H](C)C(=O)NCC(=O)N3NCCC[C@H]3C(=O)N(O)[C@H](C)C(=O)O[C@H]2C(C)C)O[C@@H]1C`, the Activity in test [1] amounted to 5 µg/mL. In test [2], this compound had a Concentration causing nonspecific degranulation (MPO release) of 2 µg/mL.
For `CC[C@H](C)C[C@H]1CC[C@](O)([C@](C)(O)C(=O)N[C@@H]2C(=O)N3NCCC[C@@H]3C(=O)N(O)[C@@H](C)C(=O)NCC(=O)N3NCCC[C@H]3C(=O)N(OC)[C@H](C)C(=O)O[C@H]2C(C)C)O[C@@H]1C`, in that order: 2 µg/mL and 2 µg/mL.
With `CC[C@H](C)C[C@H]1CC[C@](O)([C@](C)(O)C(=O)N[C@@H]2C(=O)N3NCCC[C@@H]3C(=O)N(OC)[C@@H](C)C(=O)NCC(=O)N3NCCC[C@H]3C(=O)N(OC)[C@H](C)C(=O)O[C@H]2C(C)C)O[C@@H]1C`, the Activity in test [1] is 6 µg/mL. In test [2], this compound showed a Concentration causing nonspecific degranulation (MPO release) of 3 µg/mL.
For `CC[C@H](C)C[C@H]1CC[C@](O)([C@](C)(O)C(=O)N[C@@H]2C(=O)N3NCCC[C@@H]3C(=O)N(CC(=O)OC(C)(C)C)[C@@H](C)C(=O)NCC(=O)N3NCCC[C@H]3C(=O)N(O)[C@H](C)C(=O)O[C@H]2C(C)C)O[C@@H]1C`, in that order: 100 µg/mL and above 50 µg/mL.
`CC[C@H](C)C[C@H]1CC[C@](O)([C@](C)(O)C(=O)N[C@@H]2C(=O)N3NCCC[C@@H]3C(=O)N(OC)[C@@H](C)C(=O)NCC(=O)N3NCCC[C@H]3C(=O)N(O)[C@H](C)C(=O)O[C@H]2C(C)C)O[C@@H]1C` registered an Activity in test [1] of 5 µg/mL. The Concentration causing nonspecific degranulation (MPO release) in test [2] worked out at 0.3 µg/mL.
`CC(C)[C@@H]1OC(=O)[C@@H](C)N(O)C(=O)[C@@H]2CCCNN2C(=O)CNC(=O)[C@H](C)N(O)C(=O)[C@H]2CCCNN2C(=O)[C@H]1NC(=O)[C@@](C)(O)CCCc1ccccc1`: the Activity in test [1] was above 100 µg/mL. In addition, the Concentration causing nonspecific degranulation (MPO release) in test [2] turned out to be 9 µg/mL.
Compound `CC[C@@H](C)CC1CCC(O)([C@](C)(O)C(=O)NC2C(=O)N3NCCC[C@@H]3C(=O)N(O)[C@@H](C)C(=O)NCCC(=O)N3NCCC[C@H]3C(=O)N(O)[C@H](C)C(=O)O[C@H]2C(C)C)OC1C` (some centres undefined) had an Activity in test [1] above 100 µg/mL. Further, the Concentration causing nonspecific degranulation (MPO release) in test [2] is above 50 µg/mL.
For `CCC(C)C[C@H]1CC[C@H]([C@](C)(O)C(=O)N[C@@H]2C(=O)N3NCCC[C@@H]3C(=O)N(O)[C@@H](C)C(=O)NCC(=O)N3NCCC[C@H]3C(=O)N(O)[C@H](C)C(=O)O[C@H]2C(C)C)O[C@@H]1C` (single isomer, unassigned), in that order: 3.6 µg/mL and 0.3 µg/mL.
For `CC[C@H](C)C[C@H]1CC[C@](O)([C@](C)(O)C(=O)N[C@@H]2C(=O)N3NCCC[C@@H]3C(=O)N(O)[C@@H](C)C(=O)N[C@H](C)C(=O)N3NCCC[C@H]3C(=O)N(O)[C@H](C)C(=O)O[C@H]2C(C)C)O[C@@H]1C`, in that order: above 100 µg/mL and above 100 µg/mL.
The compound `CC[C@H](C)C[C@H]1CC[C@](O)([C@](C)(O)C(=O)N[C@@H]2C(=O)N[C@H](CCCN)C(=O)N(O)[C@@H](C)C(=O)NCC(=O)N3NCCC[C@H]3C(=O)N(O)[C@H](C)C(=O)O[C@H]2C(C)C)O[C@@H]1C` came in with an Activity in test [1] of 60 µg/mL. In test [2], this compound displayed a Concentration causing nonspecific degranulation (MPO release) above 200 µg/mL.
For `CCC(C)C[C@H]1CC[C@](O)([C@](C)(O)C(=O)N[C@H]2COC(=O)[C@@H](C)NC(=O)[C@@H]3CCCNN3C(=O)CNC(=O)[C@H](C)N(O)C(=O)[C@H]3CCCNN3C2=O)O[C@@H]1C` (single isomer, unassigned), in that order: above 100 µg/mL and 26 µg/mL.
Consider `CC[C@H](C)C[C@H]1CC[C@](O)([C@](C)(O)C(=O)N[C@@H]2C(=O)N3NCCC[C@@H]3C(=O)N(O)[C@@H](C)C(=O)NCC(=O)N3NCCC[C@H]3C(=O)N[C@H](C)C(=O)O[C@H]2C(C)C)O[C@@H]1C`, for which, in test [1], the Activity stood at 21 µg/mL. The compound also gave a Concentration causing nonspecific degranulation (MPO release) in test [2] of 7 µg/mL.
For `CC[C@H](C)C[C@H]1CC[C@](O)([C@](C)(O)C(=O)N[C@@H]2C(=O)N3NCCC[C@@H]3C(=O)N(OCc3ccccc3)[C@@H](C)C(=O)NCC(=O)N3NCCC[C@H]3C(=O)N[C@H](C)C(=O)O[C@H]2C(C)C)O[C@@H]1C`, in that order: above 100 µg/mL and 18 µg/mL.
In turn, `CC[C@H](C)C[C@H]1CC[C@](O)([C@](C)(O)C(=O)N[C@@H]2C(=O)N3NCCC[C@@H]3C(=O)N(OC)[C@@H](C)C(=O)NCC(=O)N3NCCC[C@H]3C(=O)N(C)[C@H](C)C(=O)O[C@H]2C(C)C)O[C@@H]1C` returned an Activity in test [1] of 7 µg/mL. Also, the Concentration causing nonspecific degranulation (MPO release) in test [2] was determined as 20 µg/mL.
The compound `CC[C@H](C)C[C@H]1CC[C@](O)([C@](C)(O)C(=O)N[C@@H]2C(=O)N[C@H](CCCNC(C)=O)C(=O)N(O)[C@@H](C)C(=O)NCC(=O)N3NCCC[C@H]3C(=O)N(O)[C@H](C)C(=O)O[C@H]2C(C)C)O[C@@H]1C` returned an Activity in test [1] above 100 µg/mL. Moreover, in test [2], the Concentration causing nonspecific degranulation (MPO release) is above 50 µg/mL.
With `CC[C@H](C)C[C@H]1CC[C@](O)([C@](C)(O)C(=O)N[C@@H]2C(=O)N3NCCC[C@@H]3C(=O)N(OCc3ccccc3)[C@@H](C)C(=O)NCC(=O)N3NCCC[C@H]3C(=O)N(O)[C@H](C)C(=O)O[C@H]2C(C)C)O[C@@H]1C`, the Activity in test [1] was determined as 4 µg/mL. In addition, in test [2], the Concentration causing nonspecific degranulation (MPO release) is 0.6 µg/mL.
In the case of `CC[C@H](C)C[C@H]1CC[C@](O)([C@](C)(O)C(=O)N[C@@H]2C(=O)N3NCCC[C@@H]3C(=O)N(O)[C@@H](C)C(=O)N[C@@H](C)C(=O)N3NCCC[C@H]3C(=O)N(O)[C@H](C)C(=O)O[C@H]2C(C)C)O[C@@H]1C`, the Activity in test [1] stood at 60 µg/mL.
Regarding `CCC(C)C[C@H]1CC[C@](O)([C@](C)(O)C(=O)N[C@@H]2C(=O)N3NCCC[C@@H]3C(=O)N[C@@H](C)C(=O)NCC(=O)N3NCCC[C@H]3C(=O)N[C@H](C)C(=O)O[C@H]2C(C)C)O[C@@H]1C` (single isomer, unassigned), the Activity in test [1] came to 40 µg/mL. In test [2], the Concentration causing nonspecific degranulation (MPO release) was above 50 µg/mL.
Regarding `CC[C@H](C)C[C@H]1CC[C@](O)([C@](C)(O)C(=O)N[C@@H]2C(=O)N3CCCC[C@@H]3C(=O)N(O)[C@@H](C)C(=O)NCC(=O)N3NCCC[C@H]3C(=O)N(O)[C@H](C)C(=O)O[C@H]2C(C)C)O[C@@H]1C`, the Activity in test [1] amounted to 75 µg/mL. The compound also returned a Concentration causing nonspecific degranulation (MPO release) in test [2] of 20 µg/mL.
As for `CC(O)C(=O)N[C@@H]1C(=O)N2NCCC[C@@H]2C(=O)N(O)[C@@H](C)C(=O)NCC(=O)N2NCCC[C@H]2C(=O)N(O)[C@H](C)C(=O)O[C@H]1C(C)C` (stereo in doubt; 26), the Activity in test [1] is above 100 µg/mL. The compound further had a Concentration causing nonspecific degranulation (MPO release) in test [2] above 20 µg/mL.
For `CC(O)C(=O)N[C@@H]1C(=O)N2NCCC[C@@H]2C(=O)N(O)[C@@H](C)C(=O)NCC(=O)N2NCCC[C@H]2C(=O)N(O)[C@H](C)C(=O)O[C@H]1C(C)C` (stereo in doubt; 25), in that order: 23 µg/mL and 23 µg/mL.
`CC[C@H](C)C[C@H]1CC[C@](O)([C@](C)(O)C(=O)N[C@@H]2C(=O)N3[C@H](CCCN3C)C(=O)N(O)[C@@H](C)C(=O)NCC(=O)N3[C@@H](CCCN3C)C(=O)N(O)[C@H](C)C(=O)O[C@H]2C(C)C)O[C@@H]1C` returned an Activity in test [1] of 11 µg/mL. This compound also came in with a Concentration causing nonspecific degranulation (MPO release) in test [2] of 10 µg/mL.
For `CCC(C)C[C@H]1CC[C@](O)([C@](C)(O)C(=O)N[C@@H]2C(=O)N3NCCC[C@@H]3C(=O)N(O)[C@@H](C)C(=O)NCC(=O)N3NCCC[C@H]3C(=O)N[C@H](C)C(=O)OC2C)O[C@@H]1C` (single isomer, unassigned), in that order: 2 µg/mL and 1 µg/mL.
Regarding `CC(=O)C(=O)N[C@@H]1C(=O)N2NCCC[C@@H]2C(=O)N(O)[C@@H](C)C(=O)NCC(=O)N2NCCC[C@H]2C(=O)N(O)[C@H](C)C(=O)O[C@H]1C(C)C`, the Activity in test [1] is above 100 µg/mL. For the same compound, the Concentration causing nonspecific degranulation (MPO release) in test [2] is above 13 µg/mL.
For `CC[C@H](C)C[C@H]1CC[C@](O)([C@](C)(O)C(=O)N[C@@H]2C(=O)N3NCCC[C@@H]3C(=O)N(C(C)=O)[C@@H](C)C(=O)NCC(=O)N3NCCC[C@H]3C(=O)N(O)[C@H](C)C(=O)O[C@H]2C(C)C)O[C@@H]1C`, in that order: 4 µg/mL and 0.3 µg/mL.
As for `CC[C@H](C)C[C@H]1CC[C@](O)([C@](C)(O)C(=O)N[C@@H]2C(=O)N3NCCC[C@@H]3C(=O)N[C@@H](C)C(=O)NCC(=O)N3NCCC[C@H]3C(=O)N(O)[C@H](C)C(=O)O[C@H]2C(C)C)O[C@@H]1C`, the Activity in test [1] was above 100 µg/mL.
`CC(C)[C@@H]1OC(=O)[C@@H](C)N(O)C(=O)[C@@H]2CCCNN2C(=O)CNC(=O)[C@H](C)N(O)C(=O)[C@H]2CCCNN2C(=O)[C@H]1NC(=O)[C@](C)(O)CCCc1ccccc1` displayed an Activity in test [1] of 100 µg/mL. This compound came in with a Concentration causing nonspecific degranulation (MPO release) in test [2] of 12 µg/mL.

(Values after ChEMBL document CHEMBL1151577, “The inhibition of C5a receptor binding by analogs of L-156,602, a cyclic hexadepsipeptide antibiotic” (Bioorg Med Chem Lett, 1992).)
